These compounds were tested on lungs of mice (assay: In vivo screen of cationic lipids for pulmonary delivery of FFL mRNA-LNP (IVIS imaging)). Conditions: LNP with DOPE, DMG-PEG2K, optionally cholesterol; about 5 hours post-dose.
Method: In this example, various cationic lipids were tested for in Wvo efficacy when mRNA encapsulated in lipid nanoparticles (mRNA-LNP) were administered to mice by pulmonary delivery. The cationic lipids were tested for both potency, as determined by levels of protein production, and tolerability, as determined by side effects associated with clearance and metabolism.
About 150 cationic lipids were tested. (FIG. 16). Each cationic lipid was used in preparing lipid nanoparticles encapsulating mRNA encoding firefly luciferase protein (FFL mRNA) according to methods known in the art. For example, suitable methods for mRNA encapsulation include methods described in International Publication Nos. WO2016/004318 and WO 2018/089801, which are hereby incorporated by reference in their entirety. The tested lipid nanoparticles comprised a lipid component consisting of a cationic lipid, a non-cationic lipid (DOPE), a PEG-modified lipid (DMG-PEG2K), and optionally cholesterol.
Lipid nanoparticle formulations comprising FFL mRNA were administered to mice. At approximately 5 hours post-dose, the animals were dosed with luciferin by intraperitoneal injection and all animals were imaged using an IVIS imaging system to measure luciferase production in the lung. […] Some cationic lipids remarkably had greater than 50-fold increase in pulmonary protein expression as compared to other cationic lipids.

Row | Structure (SMILES) | potency as determined by the average radiance detected in mouse lungs
1 | CCCCC/C=C\C/C=C\CCCCCCCC(=O)OCC(COC(=O)CCCCCCC/C=C\C/C=C\CCCCC)(COC(=O)CCCCCCC/C=C\C/C=C\CCCCC)NCCS(=O)(=O)NCCN(C)C [GL-TES-SA-DME-E18-2, 2-((2-(N-(2-(dimethylamino)ethyl)sulfamoyl)ethyl)amino)-2-((((9Z,12Z)-octadeca-9,12-dienoyl)oxy)methyl)propane-1,3-diyl (9Z,9′Z,12Z,12′Z)-bis(octadeca-9,12-dienoate)] | particularly high potency
2 | CCCCC/C=C\C/C=C\CCCCCCCC(=O)OCC(COC(=O)CCCCCCC/C=C\C/C=C\CCCCC)(COC(=O)CCCCCCC/C=C\C/C=C\CCCCC)NCCS(=O)(=O)NCCCN(C)C [GL-TES-SA-DMP-E18-2] | particularly high potency
3 | CCCCCCCCC(O)CN(CCCC(=O)OCCN1CC(C)N(CCOC(=O)CCCN(CC(O)CCCCCCCC)CC(O)CCCCCCCC)CC1C)CC(O)CCCCCCCC (stereo not drawn) [HEP-E3-E10] | particularly high potency
4 | CCCCCCCCC(O)CN(CCCCC(=O)OCCN1CC(C)N(CCOC(=O)CCCCN(CC(O)CCCCCCCC)CC(O)CCCCCCCC)CC1C)CC(O)CCCCCCCC (stereo not drawn) [HEP-E4-E10] | particularly high potency
5 | CCCCCCCCOC(=O)CC(CC(=O)OCCCCCCCC)(OC(=O)CCN(C)C)C(=O)OCCCCCCCC [TL1-01D-DMA, trioctyl 2-((3-(dimethylamino)propanoyl)oxy)propane-1,2,3-tricarboxylate] | particularly high potency
6 | CCCCCCCCCCCCCCOC(=O)CC(CC(=O)OCCCCCCCCCCCCCC)(OC(=O)CCN(C)C)C(=O)OCCCCCCCCCCCCCC [TL1-04D-DMA] | particularly high potency
